Data from patent US20220331326A1, “PHARMACEUTICAL COMPOSITION, PHARMACEUTICAL DOSAGE FORM, PROCESS FOR THEIR PREPARATION, METHODS FOR TREATING AND USES THEREOF” (Boehringer Ingelheim International GmbH, priority 2009, published 2022).

Experiments:
[1] = compatibility with / degradation of linagliptin in the composition; format: physicochemical; details: combined with a glucopyranosyl-substituted benzene derivative of the formula (I), in particular the compound (I.3)
Description: Preferably the excipients are chosen such that they are compatible with linagliptin, i.e. such that there is no or only marginal degradation of linagliptin in the pharmaceutical composition. The degradation can be tested in standard tests, for example after a 6 months storage at 40° C. and 75% relative humidity. In this context the term “marginal degradation” shall mean a chemical degradation of linagliptin of less than 5%, preferably less than 3%, even more preferably less than 2% by weight of linagliptin. The content and thus the degradation can be determined by well-known analytical methods, for example using HPLC or UV methods.

[2] = test system: Zucker Diabetic Fatty (ZDF) rats; assay: oral glucose tolerance test in ZDF rats; format: in vivo, rat; details: male ZDF rats, single oral dose 30 min before 2 g/kg oral glucose; linagliptin 1 mg/kg, compound (I.3) 3 mg/kg, combination at the same doses; versus control
Description: According to a first example an oral glucose tolerance test is performed in overnight fasted 9-weeks old male Zucker Diabetic Fatty (ZDF) rats (ZDF/Crl-Lepr^fa). A pre-dose blood sample is obtained by tail bleed. Blood glucose is measured with a glucometer, and the animals are randomized for blood glucose (n=5/group). Subsequently, the groups receive a single oral administration of either vehicle alone (0.5% aqueous hydroxyethylcellulose containing 3 mM HCl and 0.015% Polysorbat 80) or vehicle containing either the SGLT2 inhibitor or the DPPIV inhibitor or the combination of the SGLT2 inhibitor plus the DPP IV inhibitor plus. The animals receive an oral glucose load (2 g/kg) 30 min after compound administration. Blood glucose is measured in tail blood 30 min, 60 min, 90 min, 120 min, and 180 min after the glucose challenge. Glucose excursion is quantified by calculating the reactive glucose AUC. The data are presented as mean±SEM. The two-sided unpaired Student t-test is used for statistical comparison of the control group and the active groups.
“Cpd. A” is linagliptin at a dose of 1 mg/kg. Cpd. B is the compound (I.3), i.e. 1-chloro-4-(β-D-glucopyranos-1-yl)-2-[4-((S)-tetrahydrofuran-3-yloxy)-benzyl]-benzene, at a dose of 3 mg/kg. Combination A+B is the combination of linagliptin and the compound (I.3) at the same doses. P-values versus control are indicated by symbols above the bars. […]

[3] = metformin on its own, in the diabetic; cited from earlier work

SMILES | degradation of linagliptin [1] | reduction of glucose excursion (reactive glucose AUC) in oral glucose tolerance test [2] | average improvement in the HbA1c value [3]
CC#CCn1c(N2CCC[C@@H](N)C2)nc2c1c(=O)n(Cc1nc(C)c3ccccc3n1)c(=O)n2C [Linagliptin, linagliptin] | does not show or shows only marginal degradation | 56% | 
OC[C@H]1O[C@@H](c2ccc(Cl)c(Cc3ccc(O[C@H]4CCOC4)cc3)c2)[C@H](O)[C@@H](O)[C@@H]1O [compound (I.3), 1-chloro-4-(β-D-glucopyranos-1-yl)-2-[4-((S)-tetrahydrofuran-3-yloxy)-benzyl]-benzene] |  | 51% | 
CN(C)C(=N)N=C(N)N [metformin] |  |  | 1.0-1.5%
